{"source": "patent US20250144056A1", "about": "“ANTIMICROBIAL HOST DEFENSE PEPTIDE-INDUCING COMPOSITIONS AND METHODS OF PRODUCTION AND USE THEREOF” (Board of Regents for the Oklahoma Agricultural and …, priority 2022, published 2025)", "type_in_all_cases": "cell-based, chicken", "key": {"[1]": {"tested_on": "AvBD10", "test": "RT-qPCR of AvBD10 in HD11 macrophages", "conditions": "HD11 cells, 5 μM compound with 2 mM butyrate, 24 h (FIG. 6, Panel D)", "experimental": "(§1) Culture and stimulation of macrophages. Two different chicken macrophage cell lines, HTC (24) and HD11 (25), were kindly provided by Dr. Narayan C. Rath and Dr. Hyun Lillehoj of USDA-ARS and maintained in RPMI 1640 containing 10% heat-inactivated FBS, 100 U/ml penicillin, and 100 μg/ml streptomycin and subcultured every 3-4 days. After overnight seeding at 1.5×10^6 cells/well in 6-well cell culture plates, cells were treated with different concentrations of each compound for 24 h or with the indicated concentration of each compound for various lengths of time for dose-response and time-course experiments, respectively. […]\n(§2) Total RNA extraction and gene expression analysis. […] Gene expression was performed using reverse transcription-quantitative PCR (RT-qPCR) as previously described (27-29). […] The cDNA was then diluted 10-fold with RNase-free water prior to real-time PCR using QuantiTect SYBR® Green PCR Kit (Qiagen, Valencia, CA) in 10-μl reactions using primers specific for HDP, barrier function, and inflammatory cytokine genes as described (27, 29, 30). […] The fold changes in gene expression in the cells treated with individual compounds or in combinations were calculated relative to the cells treated with an equal volume of RPMI 1640 or DMSO using the ΔΔCt method (31)."}, "[2]": {"tested_on": "AvBD9 mRNA expression", "test": "RT-qPCR of AvBD9 mRNA expression in HTC macrophage cells", "experimental": "Culture and stimulation of macrophages. Two different chicken macrophage cell lines, HTC (24) and HD11 (25), were kindly provided by Dr. Narayan C. Rath and Dr. Hyun Lillehoj of USDA-ARS and maintained in RPMI 1640 containing 10% heat-inactivated FBS, 100 U/ml penicillin, and 100 μg/ml streptomycin and subcultured every 3-4 days. After overnight seeding at 1.5×10^6 cells/well in 6-well cell culture plates, cells were treated with different concentrations of each compound for 24 h or with the indicated concentration of each compound for various lengths of time for dose-response and time-course experiments, respectively. To study the synergy between HMTi/DNMTi and HDACi, different concentrations of an HMTi or DNMTi were added to the cells in the presence or absence of an HDACi for 24 h, followed by RNA isolation and HDP gene expression analysis as described below. HTC cells were also stimulated with butyrate, BIX01294, or their combination for 24 h, followed by 3-h stimulation with 10 ng/ml LPS and subsequent expression analysis.\nTotal RNA extraction and gene expression analysis. Total RNA was extracted using RNAzol (Molecular Biology Research Center, Cincinnati, OH) according to the manufacturer's protocol. Gene expression was performed using reverse transcription-quantitative PCR (RT-qPCR) as previously described (27-29). Reverse transcription was performed with 300 ng of total RNA and Maxima® First Strand cDNA Synthesis Kit (ThermoFisher Scientific, Pittsburgh, PA). The cDNA was then diluted 10-fold with RNase-free water prior to real-time PCR using QuantiTect SYBR® Green PCR Kit (Qiagen, Valencia, CA) in 10-μl reactions using primers specific for HDP, barrier function, and inflammatory cytokine genes as described (27, 29, 30). PCR was run in CFX Connect Real-Time PCR System (Bio-Rad, Hercules, CA) using the following program: 95° C. for 10 min, followed by 40 cycles of 94° C. for 15 sec, 55° C. for 20 sec, and 72° C. for 30 sec. The specificity of PCR reactions was confirmed by the melting curve analysis. The glyceraldehyde-3-phosphate dehydrogenase (GAPDH) gene was used as the reference for data normalization. The fold changes in gene expression in the cells treated with individual compounds or in combinations were calculated relative to the cells treated with an equal volume of RPMI 1640 or DMSO using the ΔΔCt method (31)."}, "[3]": {"tested_on": "AvBD2", "test": "RT-qPCR of AvBD2 in HTC cells", "conditions": "BIX01294 with 2 mM butyrate, 24 h (FIG. 5)", "experimental": "as §1, §2"}, "[4]": {"tested_on": "AvBD14", "test": "RT-qPCR of AvBD14 in HTC cells", "conditions": "2 mM butyrate and at least one concentration of BIX01294, 24 h (FIG. 5)", "experimental": "as §1, §2"}}}
{"smiles": "COc1cc2nc(N3CCCN(C)CC3)nc(NC3CCN(Cc4ccccc4)CC3)c2cc1OC", "note": "[BIX01294]", "values": [{"measurement": "AvBD10 induction, combination with butyrate", "setting": "[1]", "value": "synergistically induced, albeit at lower magnitudes"}, {"measurement": "impact of LPS on the AvBD9-inducing synergy with butyrate", "setting": "[2]; 5 μM BIX01294 + 2 mM butyrate 24 h, then 10 ng/ml LPS 3 h (FIG. 8, Panel C)", "value": "no impact"}, {"measurement": "additional increase in AvBD9 gene expression over BIX01294 alone, combination with mocetinostat", "setting": "[2]; 5 μM BIX01294 in combination with 2.5 μM mocetinostat, 24 h (FIG. 7, Panel A)", "value": 23, "unit": "fold"}, {"measurement": "additional increase in AvBD9 gene expression over BIX01294 alone, combination with butyrate", "setting": "[2]; 5 μM BIX01294 in combination with 2 mM butyrate, 24 h (FIG. 7, Panel A)", "value": 26, "unit": "fold"}, {"measurement": "additional increase in AvBD9 gene expression over BIX01294 alone, combination with vorinostat", "setting": "[2]; 5 μM BIX01294 in combination with vorinostat (SAHA), 24 h (FIG. 7, Panel A)", "value": 69, "unit": "fold"}, {"measurement": "additional increase in AvBD9 expression of the butyrate combination over compound alone", "setting": "[2]; 20 μM compound + 2 mM butyrate versus 20 μM compound alone", "value": 54, "unit": "fold"}, {"measurement": "increase in AvBD9 mRNA expression", "setting": "[2]; 20 μM compound alone, 24 h (FIG. 2, Panel B), peak", "value": 175, "unit": "fold"}, {"measurement": "induction of AvBD9 expression", "setting": "[2]; 20 μM compound alone, 24 h (FIG. 4, Panels A, B)", "value": 207, "unit": "fold"}, {"measurement": "increase in AvBD9 expression, combination with butyrate", "setting": "[2]; 20 μM compound in combination with 2 mM butyrate, 24 h (FIG. 4, Panels A, B)", "value": "11,165 fold"}, {"measurement": "synergy with butyrate in AvBD9 mRNA expression", "setting": "[2]; indicated concentrations in combination with 2 mM butyrate, 24 h (FIG. 4)", "value": "concentration-dependent increase"}, {"measurement": "synergy in AvBD9 induction with HDACi", "setting": "[2]; with any of three HDACi (vorinostat, butyrate, mocetinostat), 24 h (FIG. 7, Panel A)", "value": "dramatic synergy"}, {"measurement": "AvBD2 upregulation, combination with butyrate", "setting": "[3]", "value": "2- to 3 fold"}, {"measurement": "AvBD14 induction, combination with butyrate", "setting": "[4]", "value": "greater than 100 fold"}]}
